Read-outs that look alike come from different tables or passages of the source. Where only a bound is given, the exact number is not on record here.

Assay [1] deals with T1, GUSB (lysosomal beta-glucuronidase) (Homo sapiens, UniProt P08236).
T1 construct: endogenous enzyme in HEK293T cells (GBA2-expressing line)
T1 sequence (P08236 23-651): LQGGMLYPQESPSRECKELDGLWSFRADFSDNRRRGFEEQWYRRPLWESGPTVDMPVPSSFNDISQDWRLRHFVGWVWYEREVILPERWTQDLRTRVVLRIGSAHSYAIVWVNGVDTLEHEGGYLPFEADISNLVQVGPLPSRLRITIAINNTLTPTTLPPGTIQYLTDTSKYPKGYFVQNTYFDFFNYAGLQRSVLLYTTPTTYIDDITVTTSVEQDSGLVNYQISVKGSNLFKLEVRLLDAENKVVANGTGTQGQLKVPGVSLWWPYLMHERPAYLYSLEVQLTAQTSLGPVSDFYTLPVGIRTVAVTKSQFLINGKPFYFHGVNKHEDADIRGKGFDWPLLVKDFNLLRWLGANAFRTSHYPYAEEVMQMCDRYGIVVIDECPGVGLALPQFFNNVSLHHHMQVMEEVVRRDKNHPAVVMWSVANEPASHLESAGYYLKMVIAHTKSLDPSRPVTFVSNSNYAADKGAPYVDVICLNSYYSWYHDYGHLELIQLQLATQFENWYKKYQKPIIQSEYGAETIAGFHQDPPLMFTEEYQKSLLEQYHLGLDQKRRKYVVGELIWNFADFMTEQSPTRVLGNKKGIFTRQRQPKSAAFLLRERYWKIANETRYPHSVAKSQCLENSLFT
In words: intact cells treated, residual activity in lysate with 4MU-beta-D-glucuronide. It is filed as cell-based. The settings on record: 24 h treatment of intact HEK293T cells, assay pH 5.0.

Another assay has as its target T2, GUSB (zebrafish larvae) (Danio rerio, UniProt F1QGS9).
T2 construct: endogenous enzyme in larvae, measured in larval lysate
T2 sequence (F1QGS9 26-644): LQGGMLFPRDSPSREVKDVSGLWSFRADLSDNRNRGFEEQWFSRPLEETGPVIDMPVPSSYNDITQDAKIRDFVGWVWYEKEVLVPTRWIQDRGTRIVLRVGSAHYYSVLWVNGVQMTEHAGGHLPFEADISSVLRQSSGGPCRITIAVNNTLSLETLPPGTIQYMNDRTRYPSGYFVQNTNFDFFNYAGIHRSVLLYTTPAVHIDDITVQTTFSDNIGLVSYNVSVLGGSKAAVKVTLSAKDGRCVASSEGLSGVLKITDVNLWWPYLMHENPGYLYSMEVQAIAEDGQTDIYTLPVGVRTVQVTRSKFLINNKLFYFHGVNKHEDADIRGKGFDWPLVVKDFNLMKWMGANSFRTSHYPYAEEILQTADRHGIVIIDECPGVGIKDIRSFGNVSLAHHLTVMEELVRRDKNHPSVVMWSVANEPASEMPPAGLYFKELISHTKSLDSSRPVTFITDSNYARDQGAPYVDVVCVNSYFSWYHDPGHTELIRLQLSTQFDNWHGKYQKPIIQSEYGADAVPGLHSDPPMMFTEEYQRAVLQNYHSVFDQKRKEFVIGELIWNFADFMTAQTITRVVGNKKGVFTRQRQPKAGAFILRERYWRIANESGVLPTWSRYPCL
In words: live larvae exposed, residual activity in lysate with 4MU-beta-D-glucuronide. The conditions noted are these: covalent; in vivo: concentration in egg water, 5 days at 28.5 °C; assay pH 5.0; read-out: CBE / Enz. assay. An excerpt: live larvae exposed, residual activity in lysate with 4MU-beta-D-glucuronide on GUSB (zebrafish larvae)

The next assay concerns T3, GANAB (zebrafish larvae).
T3 construct: endogenous enzyme in larvae, measured in larval lysate; paralogues not distinguished
In words: live larvae exposed, residual activity in lysate with 4MU-alpha-D-glucopyranoside. The settings on record: covalent; in vivo: concentration in egg water, 5 days at 28.5 °C; assay pH 7.0; read-out: CBE / Enz. assay. Set-up: species or system Danio rerio. An excerpt:
live larvae exposed, residual activity in lysate with 4MU-alpha-D-glucopyranoside on GANAB (zebrafish larvae)

For the compound `OC[C@@H]1[C@@H](O)[C@H](O)[C@@H](O)[C@@H]2O[C@H]12` [compound 2, cyclophellitol], in assay [1] (read-out: apparent IC50), the IC50 is more than 0.01 mM.

With `OC1C(O)C(O)C2OC2C1O` (stereo not shown) [compound 1, conduritol B epoxide], the IC50 in assay [1] (covalent, read-out: CBE / Enz. assay) was 0.607 mM; at GUSB (zebrafish larvae) it was 6.38 mM; in the assay on GANAB (zebrafish larvae), 4.55 mM.

The values above are taken from article PMC6850446, “In vivo inactivation of glycosidases by conduritol B epoxide and cyclophellitol as revealed by activity‐based protein profiling” (The Febs Journal, 2019).
